Test results taken from patent US7795254B2, “Benzomorpholine derivatives and methods of use” (Amgen Inc., priority 2007, dated 2010).
Structures can show the parent of a compound that is named as a salt. Where two headings read alike, the source gives them in different places.

Key:
KDR = KDR (Homo sapiens, UniProt P35968); assay: KDR inhibition of metabolites; format: biochemical; settings: metabolites of Compound A
[1] = system: VEGF-induced rat corneal angiogenesis; assay: VEGF-induced rat corneal angiogenesis assay; format: in vivo; settings: for Average # of Vessels: 7 days
Experimental: (§1) Tables 2 through 6 below describe the results obtained in the rat corneal in vivo model of angiogenesis for (1) reference compound (free base) 1, (2) Compound A (free base), and (3) the hydrochloride salt of Compound A. A VEGF-induced rat corneal angiogenesis assay was performed using the following procedure: • In Life Aspects: Female CD rats weighing approximately 250 grams were randomized into one of six treatment groups. On the day of surgery the rats were temporarily anesthetized using isoflurane. A vertical incision was made on the midline of the cornea and a pocket was created to separate the connective tissue layers of the stroma. The distance between the apex of the pocket and the limbus was approximately 1.8 mm. A presoaked nylon filter disk was inserted to the apex of the pocket (in the case of the control treatment group, the disks were soaked in a buffer containing bovine serum albumin; in the remaining treatment groups, the disks were soaked in buffer containing bovine serum albumin plus human VEGF to induce angiogenesis). The different treatment groups were then dosed daily with either vehicle (Ora Plus™, a commercially available vehicle) or a designated amount of test compound formulated in vehicle. • Study Termination and Analysis: After seven days, the rats were euthanized and the implanted corneas photographed using a Nikon SV-3 Ophthalmic Slit Lamp. Numerical data were generated from the digital images using the Metamorph image analysis system (Universal Imaging). Three endpoints were analyzed on each corneal image: (1) disk placement distance from the limbus, (2) number of vessels intersecting a perpendicular line at the midpoint of the disk placement distance, and (3) blood vessel area, as determined by thresholding and automated pixel counting. Only the number of blood vessels is shown in the tables as this endpoint correlated well with the blood vessel area. • Statistical Analysis: Results were analyzed with the StatView statistical program using one-way ANOVA, followed by Fisher's least significant difference test. Data are presented as mean±SE and P<0.05 was considered significant. AUC and ED50 values were calculated using methods well known in the art.

[2] = Exposure (AUC) in the rat corneal angiogenesis study; format: in vivo; settings: female, CD, rat, in vivo
Experimental: as §1

[3] = Water absorption of the hydrous hydrochloride form; format: physicochemical; settings: 90% relative humidity and 25° C.
Excerpt: The hydrochloride salt is formed by preparing a solution of Compound A free base in ethanol and adding hydrochloric acid in slight molar excess with stirring and optional heat. Spontaneous salt formation occurred both with and without the application of heating and cooling. The hydrochloride salt is known to exist in at least one anhydrous form, which has been confirmed by single-crystal X-ray analysis, and at least one hydrous form. The anhydrous form of the hydrochloride salt is crystalline and decomposes near 230° C. when heated at a rate of 10° C./minute. The hydrous form of Compound A hydrochloride has been obtained by suspending the anhydrous hydrochloride material in water or in dilute aqueous solutions of hydrochloric acid. The hydrous material is crystalline, can freely absorb up to 4 molar equivalents of water at 90% relative humidity and 25° C., and appears to fully dehydrate by 150° C. and decompose near 170° C. when heated at a rate of 10° C./minute. Both the anhydrous and hydrous forms of Compound A hydrochloride have unique X-ray powder diffraction patterns, the major peaks of which are described below: […]

HUVEC = assay: VEGF induced proliferation, HUVEC cell-based assay; settings: Homo sapiens
[4] = Rat pharmacokinetic profile; settings: in vivo
Excerpt: (§2) Table 7 provides additional information about the pharmacokinetic profiles of reference compound 1 and Compound A. The data contained in this table was obtained using methods well known in the art.

Rat Liver Microsome = assay: Rat liver microsome clearance; format: in vitro ADME; settings: rat liver microsomes
Excerpt: as §2

Human Liver Microsome = assay: Human liver microsome clearance; format: in vitro ADME; settings: human liver microsomes
Excerpt: as §2

Sequence of KDR (P35968 20-1356, species assumed): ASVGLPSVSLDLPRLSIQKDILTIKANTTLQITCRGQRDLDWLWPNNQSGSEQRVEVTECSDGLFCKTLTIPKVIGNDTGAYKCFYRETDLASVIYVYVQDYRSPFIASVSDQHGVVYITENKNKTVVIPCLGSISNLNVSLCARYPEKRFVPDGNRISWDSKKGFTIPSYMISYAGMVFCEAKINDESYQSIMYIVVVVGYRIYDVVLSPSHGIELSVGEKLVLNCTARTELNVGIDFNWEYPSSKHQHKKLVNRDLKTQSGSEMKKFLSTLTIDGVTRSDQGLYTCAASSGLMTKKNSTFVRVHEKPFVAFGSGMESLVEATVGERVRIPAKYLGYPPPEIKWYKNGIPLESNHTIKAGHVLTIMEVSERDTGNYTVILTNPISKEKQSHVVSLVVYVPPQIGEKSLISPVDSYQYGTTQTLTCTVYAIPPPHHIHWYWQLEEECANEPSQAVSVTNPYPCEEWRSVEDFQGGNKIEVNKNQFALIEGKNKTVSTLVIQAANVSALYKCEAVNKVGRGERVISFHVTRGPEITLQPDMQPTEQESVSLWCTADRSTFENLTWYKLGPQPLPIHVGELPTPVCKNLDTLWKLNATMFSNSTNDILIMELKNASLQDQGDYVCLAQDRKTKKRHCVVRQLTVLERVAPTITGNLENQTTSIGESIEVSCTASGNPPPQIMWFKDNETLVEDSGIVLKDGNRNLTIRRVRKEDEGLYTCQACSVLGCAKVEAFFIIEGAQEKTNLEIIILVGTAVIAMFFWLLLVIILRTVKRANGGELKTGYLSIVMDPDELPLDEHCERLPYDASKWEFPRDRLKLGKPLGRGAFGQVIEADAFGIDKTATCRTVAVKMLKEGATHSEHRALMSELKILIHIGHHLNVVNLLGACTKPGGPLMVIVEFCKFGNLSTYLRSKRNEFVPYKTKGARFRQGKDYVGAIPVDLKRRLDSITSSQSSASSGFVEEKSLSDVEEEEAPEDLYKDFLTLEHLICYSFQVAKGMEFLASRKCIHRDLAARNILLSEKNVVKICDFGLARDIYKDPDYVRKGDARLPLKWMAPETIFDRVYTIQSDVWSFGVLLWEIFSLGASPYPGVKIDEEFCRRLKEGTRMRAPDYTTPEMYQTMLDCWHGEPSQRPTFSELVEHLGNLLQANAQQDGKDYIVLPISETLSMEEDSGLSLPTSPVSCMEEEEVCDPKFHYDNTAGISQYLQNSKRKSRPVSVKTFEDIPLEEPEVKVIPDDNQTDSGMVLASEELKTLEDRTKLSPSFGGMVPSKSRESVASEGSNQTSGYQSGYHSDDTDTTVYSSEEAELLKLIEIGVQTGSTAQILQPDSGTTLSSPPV

Compound: COc1cc2nccc(Oc3ccc4c(c3)OCCN4C(=O)Nc3cc(CO)on3)c2cc1OC [7-(6,7-dimethoxyquinolin-4-yloxy)-N-(5-(hydroxymethyl)isoxazol-3-yl)-2,3-dihydrobenzo[b][1,4]oxazine-4-carboxamide hydrochloride]
- IC50 (KDR): 1.04 nM

Compound: COc1cc2nccc(Oc3ccc4c(c3)OCCN4C(=O)Nc3cc(C)on3)c2cc1O [7-(6-hydroxy-7-methoxyquinolin-4-yloxy)-N-(5-methylisoxazol-3-yl)-2,3-dihydrobenzo[b][1,4]oxazine-4-carboxamide]
- IC50 (KDR): 1.68 nM

Compound: COc1cc2c(Oc3ccc4c(c3)OCCN4C(=O)Nc3cc(C)on3)ccnc2cc1O [7-(7-hydroxy-6-methoxyquinolin-4-yloxy)-N-(5-methylisoxazol-3-yl)-2,3-dihydrobenzo[b][1,4]oxazine-4-carboxamide]
- IC50 (KDR): 777 nM

Compound: COc1cc2nccc(Oc3ccc4c(c3)OCCN4C(=O)Nc3cc(C)on3)c2cc1OC [Compound A (HCl Salt)]
- ED50 ([1]; Rattus norvegicus, Table 4, HCl salt Run # 1, number of vessels, read-out: ED50): 0.04 mg/kg
- ED50 ([1]; Rattus norvegicus, Table 5, HCl salt Run #2, number of vessels, read-out: ED50): 0.15 mg/kg
- Average # of Vessels ([1]; Table 4, HCl salt Run # 1, VEGF disc + 0.03 mg/kg daily): 15.3
- Average # of Vessels ([1]; Table 4, HCl salt Run # 1, VEGF disc + 0.1 mg/kg daily): 9.3
- Average # of Vessels ([1]; Table 4, HCl salt Run # 1, VEGF disc + 0.3 mg/kg daily): 4.3
- Average # of Vessels ([1]; Table 4, HCl salt Run # 1, VEGF disc + 1.0 mg/kg daily): 0.4
- Average # of Vessels ([1]; Table 5, HCl salt Run #2, VEGF disc + 0.01 mg/kg daily): 28.9
- Average # of Vessels ([1]; Table 5, HCl salt Run #2, VEGF disc + 0.03 mg/kg daily): 25.5
- Average # of Vessels ([1]; Table 5, HCl salt Run #2, VEGF disc + 0.1 mg/kg daily): 18.0
- Average # of Vessels ([1]; Table 5, HCl salt Run #2, VEGF disc + 0.3 mg/kg daily): 7.3
- Average # of Vessels ([1]; Table 6, HCl salt Run #3, VEGF disc + 0.01 mg/kg daily): 28.4
- Average # of Vessels ([1]; Table 6, HCl salt Run #3, VEGF disc + 0.03 mg/kg daily): 32.0
- Average # of Vessels ([1]; Table 6, HCl salt Run #3, VEGF disc + 0.1 mg/kg daily): 15.4
- Average # of Vessels ([1]; Table 6, HCl salt Run #3, VEGF disc + 0.3 mg/kg daily): 4.8
- AUC ([2]; 0.01 mg/kg, Table 5, HCl salt Run #2, 0.01 mg/kg daily): 95.8 ng·h/mL
- AUC ([2]; 0.03 mg/kg, Table 4, HCl salt Run # 1, 0.03 mg/kg daily): 162 ng·h/mL
- AUC ([2]; 0.03 mg/kg, Table 5, HCl salt Run #2, 0.03 mg/kg daily): 272 ng·h/mL
- AUC ([2]; 0.1 mg/kg, Table 4, HCl salt Run # 1, 0.1 mg/kg daily): 460 ng·h/mL
- AUC ([2]; 0.1 mg/kg, Table 5, HCl salt Run #2, 0.1 mg/kg daily): 954 ng·h/mL
- AUC ([2]; 0.3 mg/kg, Table 4, HCl salt Run # 1, 0.3 mg/kg daily): 1190 ng·h/mL
- AUC ([2]; 0.3 mg/kg, Table 5, HCl salt Run #2, 0.3 mg/kg daily): 3900 ng·h/mL
- AUC ([2]; 1 mg/kg, Table 4, HCl salt Run # 1, 1.0 mg/kg daily): 3640 ng·h/mL
- AUC ([2]; oral, 0.01 mg/kg, Table 6, HCl salt Run #3, 0.01 mg/kg daily): 21.8 ng·h/mL
- AUC ([2]; oral, 0.03 mg/kg, Table 6, HCl salt Run #3, 0.03 mg/kg daily): 80.2 ng·h/mL
- AUC ([2]; oral, 0.1 mg/kg, Table 6, HCl salt Run #3, 0.1 mg/kg daily): 322 ng·h/mL
- AUC ([2]; oral, 0.3 mg/kg, Table 6, HCl salt Run #3, 0.3 mg/kg daily): 677 ng·h/mL
- water absorbed [3]: up to 4 molar equivalents of water

Compound: COc1cc2c(Oc3ccc4c(c3)OCCN4C(=O)Nc3cc(C)on3)cc[n+]([O-])c2cc1OC [Compound A N-oxide]
- IC50 (KDR): 5000 nM

Compound: COc1cc2nccc(Oc3ccc4c(c3)OCCN4C(=O)Nc3ccon3)c2cc1OC [Reference Compound 1, reference compound]
- IC50 (HUVEC): 7 nM
- ED50 ([1]; Rattus norvegicus, Table 2, free base, number of vessels, read-out: ED50): > 0.3 mg/kg
- Average # of Vessels ([1]; Table 2, free base, VEGF disc + 0.01 mg/kg daily): 22.0
- Average # of Vessels ([1]; Table 2, free base, VEGF disc + 0.03 mg/kg daily): 25.4
- Average # of Vessels ([1]; Table 2, free base, VEGF disc + 0.1 mg/kg daily): 19.3
- Average # of Vessels ([1]; Table 2, free base, VEGF disc + 0.3 mg/kg daily): 15.9
- ED50 ([1]; free base, review of Tables 2 and 3): > 0.3 mpk
- AUC ([2]; oral, 0.03 mg/kg, Table 2, free base, 0.03 mg/kg daily): 22.5 ng·h/mL
- AUC ([2]; oral, 0.1 mg/kg, Table 2, free base, 0.1 mg/kg daily): 68.5 ng·h/mL
- AUC ([2]; oral, 0.3 mg/kg, Table 2, free base, 0.3 mg/kg daily): 205 ng·h/mL
- clearance ([4]; intravenous): 13.3 mL/min/kg
- Vd ([4]; intravenous, read-out: Rat Volume of Distribution): 1 L/kg
- half-life ([4]; iv, I.V., read-out: Rat I.V. T1/2 (converted)): 4.73 h
- bioavailability ([4]; po, 2 mg/kg, P.O., 2 mpk, read-out: Rat P.O. (2 mpk) % F): 67%
- AUC(0-inf) ([4]; po, 2 mg/kg, P.O., 2 mpk, read-out: Rat P.O. (2 mpk) AUC0-inf): 1710 ng·h/mL
- AUC(0-t) ([4]; po, 2 mg/kg, P.O., 2 mpk, read-out: Rat P.O. (2 mpk) AUC0-t): 1700 ng·h/mL
- half-life ([4]; po, 2 mpk, P.O., read-out: Rat P.O. T1/2 (converted)): 2.4 h
- Rat Liver Microsome (Rat Liver Microsome): 65 µL/min/mg
- Human Liver Microsome (Human Liver Microsome): 29 µL/min/mg
